Structures are written as SMILES. Active and inactive are the calls of the source. The calls are words filed in the database; no cut-off is given here. A value given as a limit tells only on which side of the number the result lay.

One assay concerns the target CDK2/Cyclin A2 (Homo sapiens, UniProt P24941). In words: Inhibition of CDK2/Cyclin A (unknown origin) by radiometric assay. It counts as protein-complex assay. Conditions: read-out: Ki(app).
Another assay deals with CDK9/cyclin T1 (Homo sapiens, UniProt P50750). In words: Inhibition of CDK9/Cyclin T1 (unknown origin) by radiometric assay. It counts as protein-complex assay. Conditions: read-out: Ki(app).
Assay [1] has as its target Cyclin-dependent kinase 1/cyclin B1 (Homo sapiens, UniProt P06493). In words: Inhibition of CDK1/Cyclin B (unknown origin) by radiometric assay. To be noted: read-out: Ki(app). It counts as protein-complex assay.
Assay [2] deals with Cyclin-dependent kinase 7/ cyclin H (Homo sapiens, UniProt P50613). Put plainly: Inhibition of CDK7/Cyclin H (unknown origin) by radiometric assay. It counts as protein-complex assay. To be noted: read-out: Ki(app).
The subject of another assay is MCF7. In words: Growth inhibition of human MCF7 cells after 48 hrs by MTT assay. It counts as functional. Conditions: MCF7, 48 h.
The next assay has as its system HCT-116. In words: Growth inhibition of human HCT116 cells after 48 hrs by MTT assay. It counts as functional. To be noted: HCT-116, 48 h.
Assay [3] addresses Cyclin-dependent kinase 9 (Homo sapiens) (UniProt P50750). In words: Inhibition of CDK9 in human HCT116 cells assessed as decrease in RNAP2 CTD phosphorylation at Ser5 at 10 uM after 24 hrs by Western blot analysis. It counts as cell-based. Conditions: HCT-116. (A western blot detects proteins with antibodies after separation by electrophoresis.)
Assay [4] has the same target. In words: Inhibition of CDK9 in human HCT116 cells assessed as downregulation of Mcl-1 protein expression at 1 to 5 uM after 24 hrs by Western blot analysis. It counts as cell-based. To be noted: HCT-116.
Assay [5] shares this target. In words: Inhibition of CDK9 in human HCT116 cells assessed as decrease in RNAP2 CTD phosphorylation at Ser2 at 1 to 5 uM after 24 hrs by Western blot analysis. It counts as cell-based. Conditions: HCT-116.
The species named for a further assay is Homo sapiens. In words: Selectivity ratio of Ki(app) for CDK7/Cyclin H (unknown origin) to Ki(app) for CDK9/Cyclin T1 (unknown origin).

Sequence of Cyclin-dependent kinase 1/cyclin B1 (P06493 whole entry): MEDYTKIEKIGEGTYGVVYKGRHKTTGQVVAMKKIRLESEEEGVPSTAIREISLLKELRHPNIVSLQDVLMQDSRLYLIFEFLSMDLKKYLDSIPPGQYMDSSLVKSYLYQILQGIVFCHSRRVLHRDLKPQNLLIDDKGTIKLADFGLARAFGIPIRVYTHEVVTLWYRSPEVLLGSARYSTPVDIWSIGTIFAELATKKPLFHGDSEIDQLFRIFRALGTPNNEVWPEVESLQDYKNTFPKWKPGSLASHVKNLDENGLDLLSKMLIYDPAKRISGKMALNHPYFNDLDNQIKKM
Sequence of Cyclin-dependent kinase 1/cyclin B1 (P14635 whole entry, further chain): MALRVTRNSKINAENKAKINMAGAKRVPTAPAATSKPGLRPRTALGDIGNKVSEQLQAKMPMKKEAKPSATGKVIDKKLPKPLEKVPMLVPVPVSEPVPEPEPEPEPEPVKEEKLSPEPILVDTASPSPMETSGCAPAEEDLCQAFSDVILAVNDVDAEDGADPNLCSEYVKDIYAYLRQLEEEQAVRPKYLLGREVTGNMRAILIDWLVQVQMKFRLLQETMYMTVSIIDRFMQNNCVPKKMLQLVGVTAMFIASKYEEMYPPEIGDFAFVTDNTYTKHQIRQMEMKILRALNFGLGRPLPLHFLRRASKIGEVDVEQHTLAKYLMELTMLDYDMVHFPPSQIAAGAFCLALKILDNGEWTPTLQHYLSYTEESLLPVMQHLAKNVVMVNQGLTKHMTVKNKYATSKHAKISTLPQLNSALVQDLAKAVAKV
Sequence of Cyclin-dependent kinase 7/ cyclin H (P51946 whole entry): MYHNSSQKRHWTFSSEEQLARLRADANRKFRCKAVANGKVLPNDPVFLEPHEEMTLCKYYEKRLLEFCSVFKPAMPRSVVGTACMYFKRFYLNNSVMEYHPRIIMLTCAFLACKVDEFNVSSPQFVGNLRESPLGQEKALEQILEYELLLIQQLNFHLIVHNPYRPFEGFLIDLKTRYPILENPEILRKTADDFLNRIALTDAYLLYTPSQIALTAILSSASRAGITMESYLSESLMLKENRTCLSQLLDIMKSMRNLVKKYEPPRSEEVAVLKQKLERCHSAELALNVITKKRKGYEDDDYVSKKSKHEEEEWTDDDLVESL
Sequence of Cyclin-dependent kinase 7/ cyclin H (P50613 whole entry): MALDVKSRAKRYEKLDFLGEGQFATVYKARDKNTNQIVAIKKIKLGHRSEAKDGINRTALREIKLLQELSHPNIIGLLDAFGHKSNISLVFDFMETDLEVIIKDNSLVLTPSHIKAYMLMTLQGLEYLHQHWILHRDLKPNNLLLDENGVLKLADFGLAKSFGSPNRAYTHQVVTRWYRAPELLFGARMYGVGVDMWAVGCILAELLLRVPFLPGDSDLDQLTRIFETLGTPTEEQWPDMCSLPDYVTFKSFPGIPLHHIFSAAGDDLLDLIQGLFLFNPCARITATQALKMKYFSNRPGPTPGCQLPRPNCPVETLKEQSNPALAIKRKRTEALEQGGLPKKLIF
Sequence of Cyclin-dependent kinase 9 (Homo sapiens) (P50750 whole entry): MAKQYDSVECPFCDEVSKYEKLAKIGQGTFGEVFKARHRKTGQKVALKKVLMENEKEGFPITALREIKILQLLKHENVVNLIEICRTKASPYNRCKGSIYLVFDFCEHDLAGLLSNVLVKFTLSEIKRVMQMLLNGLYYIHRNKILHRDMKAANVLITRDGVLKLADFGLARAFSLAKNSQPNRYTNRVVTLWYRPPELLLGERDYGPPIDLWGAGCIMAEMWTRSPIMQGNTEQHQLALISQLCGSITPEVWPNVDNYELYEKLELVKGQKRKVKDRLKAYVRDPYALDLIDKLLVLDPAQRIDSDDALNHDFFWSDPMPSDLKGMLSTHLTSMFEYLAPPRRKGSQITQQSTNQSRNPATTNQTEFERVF
Sequence of CDK9/cyclin T1 (O60563 whole entry): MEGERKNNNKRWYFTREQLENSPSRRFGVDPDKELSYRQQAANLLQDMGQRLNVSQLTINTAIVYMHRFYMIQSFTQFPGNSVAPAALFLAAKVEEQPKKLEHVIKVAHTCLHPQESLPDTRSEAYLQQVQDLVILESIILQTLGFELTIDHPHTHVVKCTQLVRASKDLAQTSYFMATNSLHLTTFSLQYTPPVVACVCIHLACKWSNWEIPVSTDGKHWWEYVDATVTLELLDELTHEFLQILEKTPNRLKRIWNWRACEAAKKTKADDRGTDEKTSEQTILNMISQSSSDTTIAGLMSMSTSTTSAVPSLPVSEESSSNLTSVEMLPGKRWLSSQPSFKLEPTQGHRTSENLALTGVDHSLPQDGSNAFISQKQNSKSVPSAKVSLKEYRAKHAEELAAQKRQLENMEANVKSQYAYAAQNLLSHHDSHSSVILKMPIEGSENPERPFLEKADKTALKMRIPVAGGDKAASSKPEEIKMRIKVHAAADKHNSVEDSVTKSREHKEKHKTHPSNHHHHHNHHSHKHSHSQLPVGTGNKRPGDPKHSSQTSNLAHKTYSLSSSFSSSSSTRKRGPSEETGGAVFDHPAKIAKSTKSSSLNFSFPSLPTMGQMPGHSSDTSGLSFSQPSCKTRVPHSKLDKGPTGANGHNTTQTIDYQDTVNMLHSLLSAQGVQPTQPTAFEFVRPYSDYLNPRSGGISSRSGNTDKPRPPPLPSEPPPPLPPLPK
Sequence of CDK9/cyclin T1 (P50750 whole entry): as the sequence (P50750 whole entry) above

`CNc1nc(C)c(-c2nc(Nc3ccc(C(=O)NC4CCN(C)CC4)cc3)ncc2C#N)s1`: the Ki at CDK2/Cyclin A2 worked out at 32 nM; on CDK9/cyclin T1, 8 nM; in assay [1], 43 nM; in assay [2], 304 nM.

In the case of `CNc1nc(C)c(-c2nc(Nc3cccc(C(=O)NC4CCN(C)CC4)c3)ncc2F)s1`, the Ki worked out at 231 nM at CDK2/Cyclin A2, 36 nM on CDK9/cyclin T1, 64 nM in assay [1] and 542 nM in assay [2].

As to `CNc1nc(C)c(-c2nc(Nc3cccc(S(=O)(=O)NCCOC)c3)ncc2F)s1`, the Ki at CDK2/Cyclin A2 was found to be 6 nM; at CDK9/cyclin T1 it was 3 nM; in assay [1], 10 nM; in [2], 30 nM.

With `CC(=O)N1CCN(c2cccc(Nc3ncc(F)c(-c4sc(N)nc4C)n3)c2)CC1`, the Ki was determined as 77 nM on CDK2/Cyclin A2, 11 nM on CDK9/cyclin T1, 41 nM in [1] and 1460 nM in assay [2].

For `CNc1nc(C)c(-c2nc(Nc3cccc(S(C)(=O)=O)c3)ncc2C#N)s1`, the Ki worked out at 43 nM at CDK2/Cyclin A2, 5 nM on CDK9/cyclin T1, 19 nM in assay [1] and 110 nM in assay [2].

Usually GI50 stands for the concentration that inhibits growth by half. A high value points to lower sensitivity of the cells. As to `CNc1nc(C)c(-c2ccnc(Nc3cccc(C(=O)N4CCOCC4)c3)n2)s1`, the Ki was determined as 485 nM on CDK2/Cyclin A2, 95 nM at CDK9/cyclin T1, 261 nM in [1] and 393 nM in [2]. The GI50 is 550 nM in the assay with MCF7 and 520 nM with HCT-116.

Consider `CNc1nc(C)c(-c2nc(Nc3cccc(S(=O)(=O)N4CCN(C)CC4)c3)ncc2C#N)s1`, for which the Ki at CDK2/Cyclin A2 came to 584 nM; on CDK9/cyclin T1, 35 nM; in [1] it was 576 nM; in [2], 24 nM.

For `CNc1nc(C)c(-c2nc(Nc3cc(C(=O)N4CCN(C)CC4)ccc3Cl)ncc2C#N)s1`, the Ki is over 5000 nM on CDK2/Cyclin A2, 715 nM at CDK9/cyclin T1, over 5000 nM in assay [1] and over 5000 nM in assay [2].

With `CNc1nc(C)c(-c2nc(Nc3cccc(C(=O)N4CCN(C(C)=O)CC4)c3)ncc2C#N)s1`, the Ki amounted to 134 nM on CDK2/Cyclin A2, 17 nM at CDK9/cyclin T1, 166 nM in [1] and 552 nM in [2].

Consider `CNc1nc(C)c(-c2nc(Nc3ccc(C)c(S(=O)(=O)N4CCOCC4)c3)ncc2F)s1`, for which the Ki came out at 130 nM on CDK2/Cyclin A2, 11 nM on CDK9/cyclin T1, 101 nM in [1] and 133 nM in assay [2].

On to `CNc1nc(C)c(-c2nc(Nc3cccc(S(=O)(=O)N4CCOCC4)c3)ncc2C#N)s1`, for which the Ki at CDK2/Cyclin A2 turned out to be 55 nM; on CDK9/cyclin T1, 14 nM; in assay [1], 73 nM; in assay [2], 893 nM.

Take `CNc1nc(C)c(-c2nc(Nc3cccc(C(=O)N4CCN(C)CC4)c3)ncc2C#N)s1`: the Ki came out at 164 nM on CDK2/Cyclin A2, 19 nM at CDK9/cyclin T1, 313 nM in assay [1] and 840 nM in assay [2]. The GI50 with MCF7 is 1380 nM; in the assay on HCT-116, 720 nM.

In the case of `CNc1nc(C)c(-c2ccnc(Nc3ccc(C)c(S(=O)(=O)N4CCOCC4)c3)n2)s1`, the Ki at CDK2/Cyclin A2 is 294 nM; on CDK9/cyclin T1, 27 nM; in assay [1] it was 357 nM; in [2], 150 nM. Also, the GI50 in the assay with MCF7 turned out to be 1610 nM; in the assay on HCT-116 it was 940 nM.

For `CNc1nc(C)c(-c2nc(Nc3cccc(C(=O)NC4CCN(C)CC4)c3)ncc2C#N)s1`, the Ki was found to be 316 nM on CDK2/Cyclin A2, 14 nM at CDK9/cyclin T1, 262 nM in assay [1] and 163 nM in [2]. Besides, the inhibition result in assay [3], in assay [4] and in assay [5] was “Active” in each case.

Turning to `CNc1nc(C)c(-c2nc(Nc3cccc(N4CCN(C)CC4)c3)ncc2F)s1`, the Ki turned out to be 41 nM on CDK2/Cyclin A2, 7 nM on CDK9/cyclin T1, 32 nM in assay [1] and 541 nM in [2].

On to `Cc1nc(N)sc1-c1nc(Nc2cccc(N3CCN(C)CC3)c2)ncc1F`, for which the Ki on CDK2/Cyclin A2 is 68 nM; on CDK9/cyclin T1, 11 nM; in assay [1], 65 nM; in assay [2], 476 nM.

As for `Cc1nc(N)sc1-c1nc(Nc2cccc(S(N)(=O)=O)c2)ncc1F`, the Ki in assay [2] was found to be 252 nM.

As for `CNc1nc(C)c(-c2nc(Nc3cccc(C(=O)N4CCOCC4)c3)ncc2C#N)s1`, the Ki on CDK2/Cyclin A2 came out at 199 nM; in assay [1] it was 205 nM; in assay [2] it was 1870 nM. The GI50 was determined as 820 nM in the assay on MCF7 and 590 nM in the assay on HCT-116. The Ratio Ki(app) in the assay listed under Homo sapiens came out at 43.

Consider `CNc1nc(C)c(-c2nc(Nc3cccc(S(=O)(=O)NCCOC)c3)ncc2C#N)s1`, for which the Ki on CDK2/Cyclin A2 turned out to be 22 nM; on CDK9/cyclin T1, 16 nM; in assay [1], 34 nM; in assay [2], 180 nM.
